In US20220315554A1, “COMPOUNDS COMPRISING A […] LIGAND AND USE THEREOF” (priority 2019, published 2022):
Numbered stars: 1 amine (or outer) side, 2 acyl side, 3 side chain; on linkers, the order of the positions; unused ones are H or OH. Bridge positions count the residues as written; N and C are the ends. Square brackets hold non-standard residues; d marks the D form. Peptide text beside a SMILES is read from it. * marks the point of attachment. TBMB(SCH2CH2NH-DOTA) = O=C(O)CN1CCN(CC(=O)O)CCN(CC(=O)NCCSCc2cc(C[*:1])cc(C[*:2])c2)CCN(CC(=O)O)CC1; X11 = O=C(CN1CCN2CCN3CCN(CC1)CC(=O)[O][In]([O]C(=O)C2)[O]C(=O)C3)NCCSCc1cc(CSCCN[*:2])cc(C[*:1])c1; X7 = O=C(CN1CCN2CCN3CCN(CC1)CC(=O)[O][In]([O]C(=O)C2)[O]C(=O)C3)NCCSCc1cc(C[*:1])cc(C[*:2])c1; X1 = O=C(O)CN1CCN(CC(=O)O)CCN(CC(=O)N2CCN(Cc3cc(C[*:1])cc(C[*:2])c3)CC2)CCN(CC(=O)O)CC1; Phe(2-CF3) = N[C@@H](Cc1ccccc1C(F)(F)F)C(=O)O; Pentanesulfonyl = CCCCCS(=O)(=O)*; Hexanoyl = CCCCCC(=O)*; Sar = CNCC(=O)O

Legend:
Human recombinant FAP [1] = target: T1, Human recombinant FAP (Homo sapiens, UniProt Q12884); test: Surface plasmon resonance (Biacore) assay; assay type: binding
T1 sequence (Q12884 1-760): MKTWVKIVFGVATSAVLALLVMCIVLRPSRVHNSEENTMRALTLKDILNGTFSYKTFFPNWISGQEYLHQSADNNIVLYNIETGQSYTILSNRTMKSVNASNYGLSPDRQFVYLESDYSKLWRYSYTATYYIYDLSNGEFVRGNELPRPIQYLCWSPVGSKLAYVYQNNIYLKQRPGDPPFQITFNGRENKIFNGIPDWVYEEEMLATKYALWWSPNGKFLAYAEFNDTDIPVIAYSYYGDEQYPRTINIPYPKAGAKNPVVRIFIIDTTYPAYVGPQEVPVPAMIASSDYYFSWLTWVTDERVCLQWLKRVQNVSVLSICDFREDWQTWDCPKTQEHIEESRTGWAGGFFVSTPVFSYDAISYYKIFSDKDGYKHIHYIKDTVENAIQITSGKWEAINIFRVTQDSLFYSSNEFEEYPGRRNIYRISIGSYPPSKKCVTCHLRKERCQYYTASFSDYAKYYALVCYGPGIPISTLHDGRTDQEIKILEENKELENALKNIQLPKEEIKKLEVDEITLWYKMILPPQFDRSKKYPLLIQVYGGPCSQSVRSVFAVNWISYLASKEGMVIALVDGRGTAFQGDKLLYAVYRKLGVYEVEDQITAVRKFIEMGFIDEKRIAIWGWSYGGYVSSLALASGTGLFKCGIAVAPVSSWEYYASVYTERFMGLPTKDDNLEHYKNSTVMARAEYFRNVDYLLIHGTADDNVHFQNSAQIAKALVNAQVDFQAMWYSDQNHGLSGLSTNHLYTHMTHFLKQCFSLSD

[2] = target: T2, FAP-expressing human WI-38 fibroblasts (Homo sapiens, UniProt Q12884); test: Competitive FACS binding assay; conditions: pIC50 Category (FACS), competition with 3 nM Cy5-labeled compound, 4° C., 1 hour
T2 construct: FAP-expressing human WI-38 fibroblasts (ECACC) were cultured in EMEM; host or cells: WI-38 human fibroblasts
T2 sequence (Q12884 1-760): T1 sequence (Q12884 1-760)
Protocol: Cells were analyzed in an Attune NxT flow cytometer. […]

Human recombinant FAP [3] = target: T1, Human recombinant FAP; test: FRET-based FAP protease activity assay; assay type: biochemical; design: purchased R&D systems 3715-SE; conditions: pIC50 Category (Activity), FRET substrate, 37° C.

CCCCCC(=O)N[C@H]1CSCc2cc(CSCCNC(=O)CN3CCN(CC(=O)O)CCN(CC(=O)O)CCN(CC(=O)O)CC3)cc(c2)CSC[C@@H](C(=O)N[C@@H](CO)C(=O)O)NC(=O)[C@H](Cc2ccccc2)NC(=O)[C@H](CCC(N)=O)NC(=O)[C@H]([C@@H](C)O)NC(=O)[C@@H]2CCCN2C(=O)[C@@H]2CCCN2C1 [3BP-3658, Hex-[Cys(tMeBn(DOTA-AET))-Pro-Pro-Thr-Gln-Phe-Cys]-Ser-OH]
< 10 nM: Kd (Human recombinant FAP [1]) | IC50 [2] | IC50 (Human recombinant FAP [3])

CCCCCC(=O)N[C@H]1CSCc2cc(CSCCNC(=O)CN3CCN(CC(=O)O)CCN(CC(=O)O)CCN(CC(=O)O)CC3)cc(c2)CSC[C@@H](C(=O)N(C)CC(=O)O)NC(=O)[C@H](Cc2ccccc2)NC(=O)[C@H](CCC(N)=O)NC(=O)[C@H]([C@@H](C)O)NC(=O)[C@@H]2CCCN2C(=O)[C@@H]2CCCN2C1 [3BP-3659, Hex-[Cys(tMeBn(DOTA-AET))-Pro-Pro-Thr-Gln-Phe-Cys]-Nmg-OH]
< 10 nM: Kd (Human recombinant FAP [1]) | IC50 [2] | IC50 (Human recombinant FAP [3])

CCCCCC(=O)N[C@H]1CSCc2cc(CSCCNC(=O)CN3CCN(CC(=O)O)CCN(CC(=O)O)CCN(CC(=O)O)CC3)cc(c2)CSC[C@@H](C(=O)N[C@H](CC(=O)O)Cc2ccccc2)NC(=O)[C@H](Cc2ccccc2)NC(=O)[C@H](CCC(N)=O)NC(=O)[C@H]([C@@H](C)O)NC(=O)[C@@H]2CCCN2C(=O)[C@@H]2CCCN2C1 [3BP-3660, Hex-[Cys(tMeBn(DOTA-AET))-Pro-Pro-Thr-Gln-Phe-Cys]-Bhf-OH]
< 10 nM: Kd (Human recombinant FAP [1]) | IC50 [2] | IC50 (Human recombinant FAP [3])

CCCCCC(=O)N[C@H]1CSCc2cc(CSCCNC(=O)CN3CCN(CC(=O)O)CCN(CC(=O)O)CCN(CC(=O)O)CC3)cc(c2)CSC[C@@H](C(=O)N[C@@H](CC(=O)O)C(=O)O)NC(=O)[C@H](Cc2ccccc2)NC(=O)[C@H](CCC(N)=O)NC(=O)[C@H]([C@@H](C)O)NC(=O)[C@@H]2CCCN2C(=O)[C@@H]2CCCN2C1=O [3BP-3665, Hex-[Cys(tMeBn(DOTA-AET))-Pro-Pro-Thr-Gln-Phe-Cys]-Asp-OH] (Hexanoyl-CPPTQFCD-OH; linker 1-7 via TBMB(SCH2CH2NH-DOTA))
< 10 nM: Kd (Human recombinant FAP [1]) | IC50 [2] | IC50 (Human recombinant FAP [3])

CCCCCC(=O)N[C@H]1CSCc2cc(CSCCNC(=O)CN3CCN(CC(=O)O)CCN(CC(=O)O)CCN(CC(=O)O)CC3)cc(c2)CSC[C@@H](C(=O)O)NC(=O)[C@H](Cc2ccccc2)NC(=O)[C@H](CCC(N)=O)NC(=O)[C@H]([C@@H](C)O)NC(=O)[C@@H]2CCCN2C(=O)[C@@H]2CCCN2C1 [3BP-3678, Hex-[Cys(tMeBn(DOTA-AET))-Nmg-Pro-Thr-Gln-Phe-Cys]-OH]
< 10 nM: Kd (Human recombinant FAP [1]) | IC50 [2] | IC50 (Human recombinant FAP [3])

CCCCCC(=O)N[C@H]1CSCc2cc(CSCCNC(=O)CN3CCN(CC(=O)O)CCN(CC(=O)O)CCN(CC(=O)O)CC3)cc(c2)CSC[C@@H](C(=O)O)NC(=O)[C@H](Cc2ccccc2)NC(=O)[C@H](CCC(N)=O)NC(=O)[C@H]([C@@H](C)O)NC(=O)[C@@H]2C[C@@H](O)CN2C(=O)[C@@H]2CCCN2C1 [3BP-3679, Hex-[Cys(tMeBn(DOTA-AET))-Pro-Hyp-Thr-Gln-Phe-Cys]-OH]
< 10 nM: Kd (Human recombinant FAP [1]) | IC50 [2] | IC50 (Human recombinant FAP [3])

CCCCCC(=O)N[C@H]1CSCc2cc(CSCCNC(=O)CN3CCN(CC(=O)O)CCN(CC(=O)O)CCN(CC(=O)O)CC3)cc(c2)CSC[C@@H](C(=O)O)NC(=O)[C@H](Cc2ccccc2C(F)(F)F)NC(=O)[C@H](CCC(N)=O)NC(=O)[C@H]([C@@H](C)O)NC(=O)[C@@H]2CCCN2C(=O)CN(C)C1=O [3BP-3680, Hex-[Cys(tMeBn(DOTA-AET))-Pro-Pro-Thr-Gln-Otf-Cys]-OH] (Hexanoyl-C[Sar]PTQ[Phe(2-CF3)]C-OH; linker 1-7 via TBMB(SCH2CH2NH-DOTA))
< 10 nM: Kd (Human recombinant FAP [1]) | IC50 [2] | IC50 (Human recombinant FAP [3])

CCCCCS(=O)(=O)N[C@H]1CSCc2cc(CSCCNC(=O)CN3CCN(CC(=O)O)CCN(CC(=O)O)CCN(CC(=O)O)CC3)cc(c2)CSC[C@@H](C(=O)O)NC(=O)[C@H](Cc2ccccc2)NC(=O)[C@H](CCC(N)=O)NC(=O)[C@H]([C@@H](C)O)NC(=O)[C@@H]2CCCN2C(=O)[C@@H]2CCCN2C1=O [3BP-3690, Pentyl-SO2-[Cys(tMeBn(DOTA-AET))-Pro-Pro-Thr-Gln-Phe-Cys]-OH]
< 10 nM: Kd (Human recombinant FAP [1]) | IC50 [2] | IC50 (Human recombinant FAP [3])

CCCCCS(=O)(=O)N[C@H]1CSCc2cc(cc(CN3CCN(C(=O)CN4CCN(CC(=O)O)CCN(CC(=O)O)CCN(CC(=O)O)CC4)CC3)c2)CSC[C@@H](C(=O)N[C@@H](CC(=O)O)C(=O)O)NC(=O)[C@H](Cc2ccccc2)NC(=O)[C@H](CCC(N)=O)NC(=O)[C@H]([C@@H](C)O)NC(=O)[C@@H]2CCCN2C(=O)[C@@H]2CCCN2C1=O [3BP-3692, Pentyl-SO2-[Cys(tMeBn(DOTA-PP))-Pro-Pro-Thr-Gln-Phe-Cys]-Asp-NH2] (Pentanesulfonyl-CPPTQFCD-OH; linker 1-7 via X1)
< 10 nM: Kd (Human recombinant FAP [1]) | IC50 [2] | IC50 (Human recombinant FAP [3])

CCCCCC(=O)N[C@H]1CSCc2cc(CSCCNC(=O)CN3CCN4CCN5CCN(CC3)CC(=O)[O][In]([O]C(=O)C4)[O]C(=O)C5)cc(c2)CSC[C@@H](C(N)=O)NC(=O)[C@H](Cc2ccccc2)NC(=O)[C@H](CCC(N)=O)NC(=O)[C@H]([C@@H](C)O)NC(=O)[C@@H]2CCCN2C(=O)[C@@H]2CCCN2C1=O [3BP-3712, Hex-[Cys(tMeBn(InDOTA-AET))-Pro-Pro-Thr-Gln-Phe-Cys]-NH2]
< 10 nM: Kd (Human recombinant FAP [1]) | IC50 [2] | IC50 (Human recombinant FAP [3])

CCCCCC(=O)N[C@H]1CSCc2cc(CSCCNC(=O)CN3CCN4CCN5CCN(CC3)CC(=O)[O][In]([O]C(=O)C4)[O]C(=O)C5)cc(c2)CSCCNC(=O)[C@H](Cc2ccccc2)NC(=O)[C@H](CCC(N)=O)NC(=O)[C@H]([C@@H](C)O)NC(=O)[C@@H]2CCCN2C(=O)[C@@H]2CCCN2C1=O [3BP-3713, Hex-[Cys(tMeBn(InDOTA-AET))-Pro-Pro-Thr-Gln-Phe-AET]] (Hexanoyl-CPPTQF; linker 1-C via X11)
< 10 nM: Kd (Human recombinant FAP [1]) | IC50 [2] | IC50 (Human recombinant FAP [3])

CCCCCC(=O)N[C@H]1CSCc2cc(CSCCNC(=O)CN3CCN4CCN5CCN(CC3)CC(=O)[O][In]([O]C(=O)C4)[O]C(=O)C5)cc(c2)CSC[C@@H](C(=O)NCC(=O)O)NC(=O)[C@H](Cc2ccccc2)NC(=O)[C@H](CCC(N)=O)NC(=O)[C@H]([C@@H](C)O)NC(=O)[C@@H]2CCCN2C(=O)[C@@H]2CCCN2C1=O [3BP-3714, Hex-[Cys(tMeBn(InDOTA-AET))-Pro-Pro-Thr-Gln-Phe-Cys]-Gly-OH] (Hexanoyl-CPPTQFCG-OH; linker 1-7 via X7)
< 10 nM: Kd (Human recombinant FAP [1]) | IC50 [2] | IC50 (Human recombinant FAP [3])

CCCCCC(=O)N[C@H]1CSCc2cc(CSCCNC(=O)CN3CCN4CCN5CCN(CC3)CC(=O)[O][In]([O]C(=O)C4)[O]C(=O)C5)cc(c2)CSC[C@@H](C(=O)N(C)CC(=O)O)NC(=O)[C@H](Cc2ccccc2)NC(=O)[C@H](CCC(N)=O)NC(=O)[C@H]([C@@H](C)O)NC(=O)[C@@H]2CCCN2C(=O)[C@@H]2CCCN2C1=O [3BP-3715, Hex-[Cys(tMeBn(InDOTA-AET))-Pro-Pro-Thr-Gln-Phe-Cys]-Nmg-OH]
< 10 nM: Kd (Human recombinant FAP [1]) | IC50 [2] | IC50 (Human recombinant FAP [3])

CCCCCC(=O)N[C@H]1CSCc2cc(CSCCNC(=O)CN3CCN4CCN5CCN(CC3)CC(=O)[O][In]([O]C(=O)C4)[O]C(=O)C5)cc(c2)CSC[C@@H](C(=O)O)NC(=O)[C@H](Cc2ccccc2)NC(=O)[C@H](CCC(N)=O)NC(=O)[C@H]([C@@H](C)O)NC(=O)[C@@H]2CCCN2C(=O)CN(C)C1=O [3BP-3716, Hex-[Cys(tMeBn(InDOTA-AET))-Nmg-Pro-Thr-Gln-Phe-Cys]-OH] (Hexanoyl-C[Sar]PTQFC-OH; linker 1-7 via X7)
< 10 nM: Kd (Human recombinant FAP [1]) | IC50 [2] | IC50 (Human recombinant FAP [3])
